In general, Kd refers to a measure of binding affinity in units of concentration. Read a low Kd as higher affinity. One may read the IC50 as the midpoint of a concentration-inhibition curve.

Data on 10 compounds can be found in ChEMBL document CHEMBL3045965, “Design, synthesis, and evaluation of fluorescent cell-penetrating peptidic antagonists of Grb2-SH2 for targeting MCF-7 breast cancer cells” (Med Chem Res, 2013).

Square brackets hold non-standard residues; d marks the D form. Peptide text beside a SMILES is read from it. * marks the point of attachment. Fmoc = O=C(OCC1c2ccccc2-c2ccccc21)*; Aib = CC(C)(N)C(=O)O

Experiment [1] deals with Growth factor receptor-bound protein 2 (Homo sapiens, UniProt P62993). Kind of experiment: Binding affinity to Grb2-SH2 (unknown origin) by surface plasmon resonance analysis. In general terms: Surface plasmon resonance follows binding to a sensor surface in real time, without labels.
Sequence of Growth factor receptor-bound protein 2 (P62993 whole entry): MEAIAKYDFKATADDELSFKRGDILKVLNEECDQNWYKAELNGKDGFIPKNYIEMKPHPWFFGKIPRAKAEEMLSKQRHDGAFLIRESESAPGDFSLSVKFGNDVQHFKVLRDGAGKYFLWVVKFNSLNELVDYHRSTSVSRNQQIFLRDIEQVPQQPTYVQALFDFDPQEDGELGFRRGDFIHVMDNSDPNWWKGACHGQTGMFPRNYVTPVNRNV
Experiment [2] has as its system MCF7. In words: Cytotoxicity against Homo sapiens (human) MCF7 cells assessed as cell viability at 100 uM after 48 hr by MTT assay relative to control. The format is functional. Conditions: MCF7, 48 h, read-out: Activity. Background: Tetrazolium assays rely on reduction of a dye to a coloured formazan, in cell work by metabolically active cells.
The subject of experiment [3] is MCF7. In words: Cytotoxicity against Homo sapiens (human) MCF7 cells assessed as cell viability at 75 uM after 48 hr by MTT assay relative to control. In kind it is functional. The settings on record: MCF7, 48 h, read-out: Activity.
The subject of experiment [4] is MCF7. In words: Cytotoxicity against Homo sapiens (human) MCF7 cells assessed as cell viability at 50 uM after 48 hr by MTT assay relative to control. The format is functional. The settings on record: MCF7, 48 h, read-out: Activity.
For experiment [5], the system named is MCF7. Kind of experiment: Cytotoxicity against Homo sapiens (human) MCF7 cells assessed as cell viability at 25 uM after 48 hr by MTT assay relative to control. Conditions: MCF7, 48 h, read-out: Activity. The format is functional.
The subject of experiment [6] is MCF7. In words: Cytotoxicity against Homo sapiens (human) MCF7 cells assessed as cell viability after 48 hr by MTT assay. The format is functional, cell-based. The settings on record: MCF7, 48 h.
Experiment [7] concerns MCF7. Kind of experiment: Cytotoxicity against Homo sapiens (human) MCF7 cells assessed as cell viability after 24 hr by MTT assay. The format is functional, cell-based. Conditions: MCF7, 24 h.

For the compound `CC(C)(NC(=O)[C@H](Cc1ccc(O)cc1)NC(=O)[C@H](CCC(=O)O)NC(=O)OCC1c2ccccc2-c2ccccc21)C(=O)N[C@@H](CC(N)=O)C(=O)O` (Fmoc-EY[Aib]N-OH), the affinity in experiment [1], expressed as Kd, was 6.3 nM. In addition, in the experiment with MCF7 [2], the viability at 100 µM turned out to be 95.1%. Further, in the experiment with MCF7 [3], the viability at 75 µM is 98.2%. Besides, the viability at 50 µM in the experiment with MCF7 [4] is 104%. For the same compound, in the experiment on MCF7 [5], the viability at 25 µM is 104%.

Regarding `CC(C)(NC(=O)[C@H](Cc1ccc(O)cc1)NC(=O)[C@H](CCC(=O)O)NC(=O)OCC1c2ccccc2-c2ccccc21)C(=O)N[C@@H](CC(N)=O)C(=O)NCC(=O)N[C@@H](CCCNC(=N)N)C(=O)N[C@@H](CCCCN)C(=O)N[C@@H](CCCCN)C(=O)N[C@@H](CCCNC(=N)N)C(=O)N[C@@H](CCCNC(=N)N)C(=O)O` (Fmoc-EY[Aib]NGRKKRR-OH), the IC50 in the experiment on MCF7 [6] was more than 100 µM. The viability at 100 µM in the experiment with MCF7 [2] is 85.3%. In the experiment on MCF7 [3], the viability at 75 µM amounted to 90.9%. Also, the viability at 50 µM with MCF7 [4] stood at 91.6%. The viability at 25 µM in the experiment on MCF7 [5] was found to be 84.2%.

Regarding `CC[C@H](C)[C@H](NC(=O)[C@H](C)NC(=O)[C@@H](NC(=O)[C@H](Cc1ccc(O)cc1)NC(=O)[C@H](CC(N)=O)NC(=O)C(C)(C)NC(=O)[C@H](Cc1ccc(O)cc1)NC(=O)[C@H](CCC(=O)O)NC(=O)OCC1c2ccccc2-c2ccccc21)[C@@H](C)O)C(=O)N[C@@H](C)C(=O)N[C@@H](Cc1c[nH]c2ccccc12)C(=O)N[C@H](C(=O)N[C@@H](CCCCN)C(=O)N[C@@H](C)C(=O)N[C@@H](Cc1ccccc1)C(=O)N[C@H](C(=O)N[C@@H](CCCNC(=N)N)C(=O)N[C@@H](CCCCN)C(=O)N[C@@H](CC(C)C)C(=O)N[C@@H](CCCNC(=N)N)C(=O)N[C@@H](CCCCN)C(=O)O)[C@@H](C)CC)C(C)C` (Fmoc-EY[Aib]NYTAIAWVKAFIRKLRK-OH), the IC50 with MCF7 [6] is more than 100 µM. In the experiment with MCF7 [2], the viability at 100 µM was 79.8%. Also, the viability at 75 µM in the experiment on MCF7 [3] amounted to 77.3%. In addition, in the experiment with MCF7 [4], the viability at 50 µM is 86.5%. For the same compound, in the experiment on MCF7 [5], the viability at 25 µM was found to be 94.1%.

As for `CC(C)(NC(=O)[C@H](Cc1ccc(O)cc1)NC(=O)[C@@H](N)CCC(=O)O)C(=O)N[C@@H](CC(N)=O)C(=O)NCC(=O)N[C@@H](CCCNC(=N)N)C(=O)N[C@@H](CCCCN)C(=O)N[C@@H](CCCCN)C(=O)N[C@@H](CCCNC(=N)N)C(=O)N[C@@H](CCCNC(=N)N)C(=O)O` (H-EY[Aib]NGRKKRR-OH), the IC50 with MCF7 [6] is more than 100 µM. In the experiment with MCF7 [2], the viability at 100 µM worked out at 93.1%. Further, in the experiment on MCF7 [3], the viability at 75 µM amounted to 91.5%. For the same compound, the viability at 50 µM in the experiment on MCF7 [4] was 99.4%. In addition, the viability at 25 µM with MCF7 [5] stood at 90.7%.

Consider `CC[C@H](C)[C@H](NC(=O)[C@H](C)NC(=O)[C@@H](NC(=O)[C@H](Cc1ccc(O)cc1)NC(=O)[C@H](CC(N)=O)NC(=O)C(C)(C)NC(=O)[C@H](Cc1ccc(O)cc1)NC(=O)[C@@H](N)CCC(=O)O)[C@@H](C)O)C(=O)N[C@@H](C)C(=O)N[C@@H](Cc1c[nH]c2ccccc12)C(=O)N[C@H](C(=O)N[C@@H](CCCCN)C(=O)N[C@@H](C)C(=O)N[C@@H](Cc1ccccc1)C(=O)N[C@H](C(=O)N[C@@H](CCCNC(=N)N)C(=O)N[C@@H](CCCCN)C(=O)N[C@@H](CC(C)C)C(=O)N[C@@H](CCCNC(=N)N)C(=O)N[C@@H](CCCCN)C(=O)O)[C@@H](C)CC)C(C)C` (H-EY[Aib]NYTAIAWVKAFIRKLRK-OH), for which the IC50 with MCF7 [6] was 67.1 µM; with MCF7 [7], 87 µM. Also, the viability at 100 µM in the experiment on MCF7 [2] turned out to be 19.3%. Moreover, the viability at 75 µM with MCF7 [3] came to 40.5%. The viability at 50 µM in the experiment on MCF7 [4] was determined as 80.4%. Moreover, in the experiment with MCF7 [5], the viability at 25 µM was found to be 95.4%.

Consider `N=C(N)NCCC[C@H](NC(=O)[C@H](CCCNC(=N)N)NC(=O)[C@H](CCCCN)NC(=O)[C@H](CCCCN)NC(=O)[C@H](CCCNC(=N)N)NC(=O)CN)C(=O)O` (H-GRKKRR-OH), for which the IC50 in the experiment with MCF7 [6] is more than 100 µM. The viability at 100 µM in the experiment on MCF7 [2] amounted to 95.4%. The viability at 75 µM in the experiment on MCF7 [3] is 102%. Besides, the viability at 50 µM in the experiment with MCF7 [4] was found to be 98.5%. Besides, the viability at 25 µM in the experiment on MCF7 [5] was 93.9%.

As for `CC(C)(NC(=O)[C@H](Cc1ccc(O)cc1)NC(=O)[C@H](CCC(=O)O)NC(=O)[C@H](CCCNC(=N)N)NC(=O)[C@H](CCCNC(=N)N)NC(=O)[C@H](CCCCN)NC(=O)[C@H](CCCCN)NC(=O)[C@H](CCCNC(=N)N)NC(=O)CN)C(=O)N[C@@H](CC(N)=O)C(=O)O` (H-GRKKRREY[Aib]N-OH), in the experiment on MCF7 [6], the IC50 is more than 100 µM. For the same compound, the viability at 100 µM in the experiment with MCF7 [2] came to 82.1%. Moreover, the viability at 75 µM with MCF7 [3] worked out at 83.2%. In addition, the viability at 50 µM in the experiment with MCF7 [4] is 91.6%. In the experiment on MCF7 [5], the viability at 25 µM worked out at 90.9%.

Consider `CC[C@H](C)[C@H](NC(=O)[C@H](C)NC(=O)[C@@H](NC(=O)[C@H](Cc1ccc(O)cc1)NC(=O)[C@H](Cc1ccc(O)cc1)NC(=O)[C@H](CCC(=O)O)NC(=O)C(C)(C)NC(=O)[C@@H](N)CC(N)=O)[C@@H](C)O)C(=O)N[C@@H](C)C(=O)N[C@@H](Cc1c[nH]c2ccccc12)C(=O)N[C@H](C(=O)N[C@@H](CCCCN)C(=O)N[C@@H](C)C(=O)N[C@@H](Cc1ccccc1)C(=O)N[C@H](C(=O)N[C@@H](CCCNC(=N)N)C(=O)N[C@@H](CCCCN)C(=O)N[C@@H](CC(C)C)C(=O)N[C@@H](CCCNC(=N)N)C(=O)N[C@@H](CCCCN)C(=O)O)[C@@H](C)CC)C(C)C` (H-N[Aib]EYYTAIAWVKAFIRKLRK-OH), for which the IC50 with MCF7 [6] stood at 72.4 µM. Moreover, the viability at 100 µM with MCF7 [2] amounted to 40.6%. Also, the viability at 75 µM with MCF7 [3] came out at 56.9%. In addition, the viability at 50 µM in the experiment with MCF7 [4] turned out to be 78.9%. Further, the viability at 25 µM with MCF7 [5] is 85.3%.

In the case of `CC[C@H](C)[C@H](NC(=O)[C@H](C)NC(=O)[C@@H](N)Cc1ccc(O)cc1)C(=O)N[C@@H](C)C(=O)N[C@@H](Cc1c[nH]c2ccccc12)C(=O)N[C@H](C(=O)N[C@@H](CCCCN)C(=O)N[C@@H](C)C(=O)N[C@@H](Cc1ccccc1)C(=O)N[C@H](C(=O)N[C@@H](CCCNC(=N)N)C(=O)N[C@@H](CCCCN)C(=O)N[C@@H](CC(C)C)C(=O)N[C@@H](CCCNC(=N)N)C(=O)N[C@@H](CCCCN)C(=O)N[C@@H](CCC(=O)O)C(=O)N[C@@H](Cc1ccc(O)cc1)C(=O)NC(C)(C)C(=O)N[C@@H](CC(N)=O)C(=O)O)[C@@H](C)CC)C(C)C` (H-YAIAWVKAFIRKLRKEY[Aib]N-OH), in the experiment on MCF7 [6], the IC50 is more than 100 µM. Moreover, the viability at 100 µM in the experiment on MCF7 [2] is 59.9%. For the same compound, the viability at 75 µM in the experiment with MCF7 [3] is 64.5%. Moreover, in the experiment on MCF7 [4], the viability at 50 µM stood at 74.4%. The viability at 25 µM with MCF7 [5] was found to be 83.8%.

As to `CC[C@H](C)[C@H](NC(=O)[C@H](C)NC(=O)[C@@H](NC(=O)[C@@H](N)Cc1ccc(O)cc1)[C@@H](C)O)C(=O)N[C@@H](C)C(=O)N[C@@H](Cc1c[nH]c2ccccc12)C(=O)N[C@H](C(=O)N[C@@H](CCCCN)C(=O)N[C@@H](C)C(=O)N[C@@H](Cc1ccccc1)C(=O)N[C@H](C(=O)N[C@@H](CCCNC(=N)N)C(=O)N[C@@H](CCCCN)C(=O)N[C@@H](CC(C)C)C(=O)N[C@@H](CCCNC(=N)N)C(=O)N[C@@H](CCCCN)C(=O)O)[C@@H](C)CC)C(C)C` (H-YTAIAWVKAFIRKLRK-OH), in the experiment on MCF7 [6], the IC50 was more than 100 µM. In addition, the viability at 100 µM in the experiment on MCF7 [2] was 94.9%. Further, the viability at 75 µM with MCF7 [3] amounted to 96.4%. The viability at 50 µM in the experiment on MCF7 [4] is 97.7%. Also, in the experiment with MCF7 [5], the viability at 25 µM was found to be 101%.
